The molecules below were run against T1, human PDE4D catalytic domain (Homo sapiens, UniProt Q08499) (assay: PDE4 Assay). Details: human PDE4D catalytic domain (S380-L740), TR-FRET with FAM-cAMP; expressed as a range of IC50; read-out: PDE4 Potency Range.
T1 construct: UniProt no; Q08499 [S380-L740]
Assay type: biochemical
Method in brief: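 Catalytic domain (S380-L740) was incubated with unlabelled cAMP plus FAM-cAMP and titrated compound, then stopped with Tb-donor nanoparticles binding AMP phospho groups. Generated AMP was read by time-resolved FRET; IC50 was reported as 50% inhibition of substrate cleavage relative to controls, expressed as nM ranges.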

T1 sequence (Q08499 380-740): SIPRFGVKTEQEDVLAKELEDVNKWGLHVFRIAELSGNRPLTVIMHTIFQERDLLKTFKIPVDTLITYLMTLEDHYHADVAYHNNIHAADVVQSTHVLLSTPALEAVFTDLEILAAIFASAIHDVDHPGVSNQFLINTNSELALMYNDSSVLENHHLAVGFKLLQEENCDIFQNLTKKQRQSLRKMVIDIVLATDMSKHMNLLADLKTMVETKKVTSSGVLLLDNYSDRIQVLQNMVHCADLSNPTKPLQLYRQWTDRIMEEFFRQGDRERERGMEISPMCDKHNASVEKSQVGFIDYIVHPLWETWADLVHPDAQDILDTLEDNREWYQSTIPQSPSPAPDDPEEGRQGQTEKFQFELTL

Q: Which IC50 does the source give for `CCc1nn(CCCOC(=O)c2oncc2C)c2c1C(=O)NCC1(CCOCC1)C2` [Example 42, 3-(3-ethyl-4-oxo-spiro[6,8-dihydro-5H-pyrazolo[4,3-c]azepine-7,4′-tetrahydropyran]-1-yl)propyl 4-methylisoxazole-5-carboxylate] here?
A: 100 to 500 nM

Q: `CCc1nn(CCCOC(=O)c2cnco2)c2c1C(=O)NCC1(CCOCC1)C2` [Example 24, 3-(3-ethyl-4-oxo-spiro[6,8-dihydro-5H-pyrazolo[4,3-c]azepine-7,4′-tetrahydropyran]-1-yl)propyl oxazole-5-carboxylate] was tested. Which IC50 did it give?
A: > 500 nM

Q: How did the IC50 turn out when `CCc1nn(CCCOC(=O)c2cccnn2)c2c1C(=O)NCC1(CCOCC1)C2` [Example 29, 3-(3-ethyl-4-oxo-spiro[6,8-dihydro-5H-pyrazolo[4,3-c]azepine-7,4′-tetrahydropyran]-1-yl)propyl pyridazine-3-carboxylate] was run?
A: > 500 nM

Q: Which IC50 does the source give for `CCc1nn(CCCOC(=O)c2c[nH]nn2)c2c1C(=O)NCC1(CCOCC1)C2` [Example 25, 3-(3-ethyl-4-oxo-spiro[6,8-dihydro-5H-pyrazolo[4,3-c]azepine-7,4′-tetrahydropyran]-1-yl)propyl 1H-triazole-4-carboxylate] here?
A: 100 to 500 nM

Q: With `CCc1nn(CCCOC(=O)c2snnc2C)c2c1C(=O)NCC1(CCOCC1)C2` [Example 83, 3-(3-ethyl-4-oxo-spiro[6,8-dihydro-5H-pyrazolo[4,3-c]azepine-7,4′-tetrahydropyran]-1-yl)propyl 4-methylthiadiazole-5-carboxylate] as the molecule, how does the IC50 read?
A: > 500 nM

Q: Which IC50 does the source give for `CCc1nn(CCCOC(=O)c2cnc(C)[nH]2)c2c1C(=O)NCC1(CCOCC1)C2` [Example 36, 3-(3-ethyl-4-oxo-spiro[6,8-dihydro-5H-pyrazolo[4,3-c]azepine-7,4′-tetrahydropyran]-1-yl)propyl 2-methyl-1H-imidazole-4-carboxylate] here?
A: 100 to 500 nM

Q: With `CCc1nn(CCCOC(=O)c2ccc(C)cn2)c2c1C(=O)NCC1(CCOCC1)C2` [Example 61, 3-(3-ethyl-4-oxo-spiro[6,8-dihydro-5H-pyrazolo[4,3-c]azepine-7,4′-tetrahydropyran]-1-yl)propyl 5-methylpyridine-2-carboxylate] as the molecule, how does the IC50 read?
A: 100 to 500 nM

Q: How did the IC50 turn out when `CCc1nn(CCCOC(=O)c2ccc3ncn(C)c3c2)c2c1C(=O)NCC1(CCOCC1)C2` [Example 101, 3-(3-ethyl-4-oxo-spiro[6,8-dihydro-5H-pyrazolo[4,3-c]azepine-7,4′-tetrahydropyran]-1-yl)propyl 3-methylbenzimidazole-5-carboxylate] was run?
A: < 100 nM

Q: How did the IC50 turn out when `CCc1nn(CCOC(=O)c2cscn2)c2c1C(=O)NCC1(CCOCC1)C2` [Example 7, 2-(3-ethyl-4-oxo-spiro[6,8-dihydro-5H-pyrazolo[4,3-c]azepine-7,4′-tetrahydropyran]-1-yl)ethyl thiazole-4-carboxylate] was run?
A: > 500 nM

Q: With `CCc1nn(CCOC(=O)Cc2csc(C)n2)c2c1C(=O)NCC1(CCOCC1)C2` [Example 15, 2-(3-ethyl-4-oxo-spiro[6,8-dihydro-5H-pyrazolo[4,3-c]azepine-7,4′-tetrahydropyran]-1-yl)ethyl 2-(2-methylthiazol-4-yl)acetate] as the molecule, how does the IC50 read?
A: > 500 nM

Q: How did the IC50 turn out when `CCc1nn(CCCOC(=O)C2CCSCC2)c2c1C(=O)NCC1(CCOCC1)C2` [Example 85, 3-(3-ethyl-4-oxo-spiro[6,8-dihydro-5H-pyrazolo[4,3-c]azepine-7,4′-tetrahydropyran]-1-yl)propyl tetrahydrothiopyran-4-carboxylate] was run?
A: 100 to 500 nM

Q: For `CCc1nn(CCCOC(=O)c2cccnc2C)c2c1C(=O)NCC1(CCOCC1)C2` [Example 65, 3-(3-ethyl-4-oxo-spiro[6,8-dihydro-5H-pyrazolo[4,3-c]azepine-7,4′-tetrahydropyran]-1-yl)propyl 2-methylpyridine-3-carboxylate], which IC50 is on record?
A: 100 to 500 nM

Q: `CCc1nn(CCCOC(=O)C2CCS(=O)(=O)CC2)c2c1C(=O)NCC1(CCOCC1)C2` [Example 103, 3-(3-ethyl-4-oxo-spiro[6,8-dihydro-5H-pyrazolo[4,3-c]azepine-7,4′-tetrahydropyran]-1-yl)propyl 1,1-dioxothiane-4-carboxylate] was tested. Which IC50 did it give?
A: > 500 nM

Q: Which IC50 does the source give for `CCc1nn(CCCOC(=O)c2c(C)nn(C)c2C)c2c1C(=O)NCC1(CCOCC1)C2` [Example 91, 3-(3-ethyl-4-oxo-spiro[6,8-dihydro-5H-pyrazolo[4,3-c]azepine-7,4′-tetrahydropyran]-1-yl)propyl 1,3,5-trimethylpyrazole-4-carboxylate] here?
A: 100 to 500 nM

Q: With `CCc1nn(CCCOC(=O)c2sc(C)nc2C)c2c1C(=O)NCC1(CCOCC1)C2` [Example 95, 3-(3-ethyl-4-oxo-spiro[6,8-dihydro-5H-pyrazolo[4,3-c]azepine-7,4′-tetrahydropyran]-1-yl)propyl 2,4-dimethylthiazole-5-carboxylate] as the molecule, how does the IC50 read?
A: 100 to 500 nM

Q: With `CCc1nn(CCCOC(=O)c2cnc(C)n2C)c2c1C(=O)NCC1(CCOCC1)C2` [Example 73, 3-(3-ethyl-4-oxo-spiro[6,8-dihydro-5H-pyrazolo[4,3-c]azepine-7,4′-tetrahydropyran]-1-yl)propyl 2,3-dimethylimidazole-4-carboxylate] as the molecule, how does the IC50 read?
A: 100 to 500 nM

Q: How did the IC50 turn out when `CCc1noc(C)c1C(=O)OCCCn1nc(CC)c2c1CC1(CCOCC1)CNC2=O` [Example 92, 3-(3-ethyl-4-oxo-spiro[6,8-dihydro-5H-pyrazolo[4,3-c]azepine-7,4′-tetrahydropyran]-1-yl)propyl 3-ethyl-5-methyl-isoxazole-4-carboxylate] was run?
A: > 500 nM

Q: How did the IC50 turn out when `CCc1nn(CCCOC(=O)c2cn(C)cn2)c2c1C(=O)NCC1(CCOCC1)C2` [Example 39, 3-(3-ethyl-4-oxo-spiro[6,8-dihydro-5H-pyrazolo[4,3-c]azepine-7,4′-tetrahydropyran]-1-yl)propyl 1-methylimidazole-4-carboxylate] was run?
A: > 500 nM

Q: For `CCc1nn(CCOC(=O)c2cnc(C)o2)c2c1C(=O)NCC1(CCOCC1)C2` [Example 6, 2-(3-ethyl-4-oxo-spiro[6,8-dihydro-5H-pyrazolo[4,3-c]azepine-7,4′-tetrahydropyran]-1-yl)ethyl 2-methyloxazole-5-carboxylate], which IC50 is on record?
A: > 500 nM

Q: `CCc1nn(CCCOC(=O)C2CCCSC2)c2c1C(=O)NCC1(CCOCC1)C2` (stereo not shown) [Example 84, 3-(3-ethyl-4-oxo-spiro[6,8-dihydro-5H-pyrazolo[4,3-c]azepine-7,4′-tetrahydropyran]-1-yl)propyl tetrahydrothiopyran-3-carboxylate] was tested. Which IC50 did it give?
A: 100 to 500 nM

Q: How did the IC50 turn out when `CCc1nn(CCOC(=O)Cc2cccn2C)c2c1C(=O)NCC1(CCOCC1)C2` [Example 9, 2-(3-ethyl-4-oxo-spiro[6,8-dihydro-5H-pyrazolo[4,3-c]azepine-7,4′-tetrahydropyran]-1-yl)ethyl 2-(1-methylpyrrol-2-yl)acetate] was run?
A: > 500 nM

Q: `CCc1nn(CCCOC(=O)c2csnn2)c2c1C(=O)NCC1(CCOCC1)C2` [Example 57, 3-(3-ethyl-4-oxo-spiro[6,8-dihydro-5H-pyrazolo[4,3-c]azepine-7,4′-tetrahydropyran]-1-yl)propyl thiadiazole-4-carboxylate] was tested. Which IC50 did it give?
A: 100 to 500 nM

Q: Which IC50 does the source give for `CCc1nn(CCCOC(=O)C2CCOCC2)c2c1C(=O)NCC1(CCOCC1)C2` [Example 59, 3-(3-ethyl-4-oxo-spiro[6,8-dihydro-5H-pyrazolo[4,3-c]azepine-7,4′-tetrahydropyran]-1-yl)propyl tetrahydropyran-4-carboxylate] here?
A: > 500 nM

Q: Which IC50 does the source give for `CCc1nn(CCCOC(=O)c2ccno2)c2c1C(=O)NCC1(CCOCC1)C2` [Example 22, 3-(3-ethyl-4-oxo-spiro[6,8-dihydro-5H-pyrazolo[4,3-c]azepine-7,4′-tetrahydropyran]-1-yl)propyl isoxazole-5-carboxylate] here?
A: 100 to 500 nM

Q: Which IC50 does the source give for `CCc1nn(CCCOC(=O)c2cnon2)c2c1C(=O)NCC1(CCOCC1)C2` [Example 27, 3-(3-ethyl-4-oxo-spiro[6,8-dihydro-5H-pyrazolo[4,3-c]azepine-7,4′-tetrahydropyran]-1-yl)propyl 1,2,5-oxadiazole-3-carboxylate] here?
A: 100 to 500 nM

Reference: patent publication US11065257B2, “Substituted pyrazoloazepin-4-ones and their use as phosphodiesterase inhibitors” (LEO Pharma A/S, priority 2016, dated 2021)
